Results from PubChem BioAssay (NCI).
“And” between values parts separate entries of the source, which are not always exact repeats. Equal entries are not always repeated.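 How tested: cells in 96-well plates exposed to compound for 48 hours at five concentrations. GI50: concentration for 50% inhibition of growth. Definition used: TGI = concentration required for complete inhibition of growth.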

System: MDA-MB-468 breast
Assay: NCI anticancer screen, dose series, 48 h

SMILES | GI50 | TGI
O=C(Nc1ccc(Nc2ccncc2)cc1)c1ccc(Nc2ccnc3ccc([N+](=O)[O-])cc23)cc1[N+](=O)[O-] | 1750 nM | 18.3 µM
c1ccc2cc(C[n+]3ccn(Cc4ccc5ccccc5n4)c3)ccc2c1 | 80.7 nM and 611 nM | 0.496 µM and 4.14 µM
CCSc1ccc([C@@H]2[C@@H](N)C(=O)N2c2cc(OC)c(OC)c(OC)c2)cc1 | 77.5 nM | > 100 µM
CN(C)c1ccc(Nc2c3ccccc3nc3cc(NC(=O)CCN4CCCC4)ccc23)cc1 | 290 nM | 1.13 µM
COc1ccc(C2=N[C@@H](c3ccc(Cl)cc3)[C@@H](c3ccc(Cl)cc3)N2C(=O)N2CCNC(=O)C2)c(OC(C)C)c1 | 12200 nM and 11500 nM and 12700 nM | 25.2 µM and 24.5 µM and 26.6 µM
NC(=O)c1sc(-n2cnc3ccc(C(F)(F)F)cc32)cc1OCc1ccccc1Br | 349 nM | 0.977 µM
CCCCCCCCCCC[C@@H](C[C@H]1OC(=O)[C@H]1CCCCCC)OC(=O)[C@@H](CC(C)C)NC=O | 14100 nM | 48.3 µM
Cc1ccc(-c2cc(-c3ccc(C)cc3)nc(N3CCN(CCNc4ccnc5cc(Cl)ccc45)CC3)n2)cc1 | 1740 nM | 8.3 µM
COc1cc(C(=O)O/N=C(\N)Cc2cccc3ccccc23)cc(OC)c1OC | 15700 nM | 33.2 µM
CCCCCCCCCCCC1=NC(C)(C)CN1CC(C)O (stereo not drawn) | 2110 nM | 10.9 µM
COc1cnc2c(c1)C(=O)c1c-2n(CCCNCCN2CCOCC2)c(=O)c2cc([N+](=O)[O-])ccc12 | 124 nM | 0.605 µM
O=C(Nc1ccc(Oc2ccc(NC(=O)Nc3ccc([N+](=O)[O-])cc3)cc2)cc1)Nc1ccc([N+](=O)[O-])cc1 | 1560 nM | 14.1 µM
CC[C@H](C)[C@H](NC(=O)NC(C)(C)C)C(=O)N(C)[C@H](C[C@@H](OC(C)=O)c1nc(C(=O)N[C@@H](Cc2ccccc2)C[C@H](C)C(=O)OC)cs1)C(C)C | 79.7 nM | 0.441 µM
O=c1c2c(=NCCN3CCCC3)cc3c(=O)n(CCCN4CCOCC4)c(=O)c4ccc(c(O)n1CCCN1CCOCC1)c2c4-3 | 109 nM | 0.335 µM
COc1ccc(/C=N\NC(=O)c2ccc3nc(-c4ccc(Cl)cc4)[nH]c3c2)cc1 | 1940 nM | 4.55 µM
O=C1NC(=O)[C@@H](c2c[nH]c3ccccc23)[C@@H]1c1c[nH]c2ccccc12 | > 25000 nM | > 25 µM
CCOC(=O)Cn1c(-c2nonc2NC(=O)c2ccccc2F)nc2ccccc21 | 21800 nM | > 100 µM
C#C[C@]1(O)CC[C@H]2[C@@H]3CC=C4c5sc(NCc6ccccc6)nc5CC[C@]4(C)[C@H]3CC[C@@]21C | 4400 nM | 18.3 µM
OCCn1cc(-c2cnc3nnn(Cc4ccc5ncccc5c4)c3n2)cn1 | 98800 nM | > 100 µM
CCN(CC)CCOc1ccc(C(=C(c2ccccc2)C2CCCC2)c2ccc(OCCN(CC)CC)cc2)cc1 | 2300 nM | 5.51 µM
CN1CCN(c2ccc3nc(-c4[nH]ncc4Nc4ncnc5c4OCCCN5)[nH]c3c2)CC1 | < 10 nM | 0.0211 µM
O=C(O)c1cn(C2CC2)c2cc(N3CCNCC3)c(F)cc2c1=O | > 100000 nM | > 100 µM
Nc1nccc2c1ccn2-c1cccc(NC(=O)c2ccc(N3CCOCC3)c(C(F)(F)F)c2)c1 | 331 nM | 3.19 µM
COc1cc(-c2nc3cc(Cl)c(Cl)cc3[nH]2)ccc1OCC(=O)N=Nc1c(O)[nH]c2ccc(Cl)cc12 | 256 nM | 0.697 µM
COc1ccc(-c2nc(-c3ccccn3)c(-c3ccccn3)n2CC(C)C)cc1OC1CCCC1 | 38400 nM | 136 µM

SMILES | GI50 | TGI
CC[C@H](C)[C@H]1NC(=O)[C@@H]([C@H](O)C(C)C)NC(=O)[C@@H](C)N(C)C(=O)[C@H](C)N(C)C(=O)[C@H](CC(C)C)NC(=O)[C@H](CC(C)C)N(C)C(=O)[C@H](C)N(C)C1=O | 536 nM | 10.5 µM
C=C(C)[C@@H]1CC[C@]2(C(=O)O)CC[C@]3(C)[C@H](CC[C@@H]4[C@@]5(C)C/C(=C/c6cccc(I)c6)C(=O)C(C)(C)[C@@H]5CC[C@]43C)[C@@H]12 | 2450 nM | 11.1 µM
Cc1cc(NCc2cc(Nc3ccnc4cc(Cl)ccc34)ccc2F)nc(N2CCSCC2)n1 | 1920 nM | 4.77 µM
COc1ccc2c(c1)[nH]c(=O)c1c3cc(OC)c(OC)cc3cn21 | 20.8 nM | 0.0492 µM
CNC(=O)c1cc(Oc2ccc3nc(N[C@@H]4CCCC[C@H]4O)sc3c2)ccn1 | 23700 nM | > 89.7 µM
COc1ccc(-c2nnc(SCC(=O)Nc3ccc(C(=O)/C=C/c4cc(OC)c(OC)c(OC)c4)cc3)n2-c2ccccc2)cc1OC | 4610 nM | > 10 µM
COc1ccc(C(=O)/C=C/c2cc(-c3ccc4c(c3)OCO4)n[nH]2)cc1OC | 1860 nM | 4.52 µM
O=C1CC(c2ccsc2)c2snc(-c3ccc(Cl)cc3)c2N1 (stereo not drawn) | 291 nM | 1.72 µM
CC(C)=CC(=O)N[C@@H]1CC2CCC3C(CC[C@@]4(C)C3CC[C@@H]4C(C)N(C)C)[C@@]2(C)C[C@@H]1O (stereo partly drawn) | 1540 nM | 8.98 µM
Oc1ccc(Oc2cnc3cc(Cl)ccc3n2)cc1 | 26300 nM | > 100 µM
CCOC(=O)c1ccccc1SC(C[N+](=O)[O-])c1ccccc1 (stereo not drawn) | 1710 nM | 4.06 µM
COc1cc(-c2nc(-c3ccc(-c4nc5ccc(F)cc5[nH]4)cc3)no2)cc(OC)c1OC | 3010 nM | 17.5 µM
O=C(c1nn(-c2ccc(Cl)cc2)cc1O)n1nc(C(F)(F)F)cc1-c1ccccc1 | 4500 nM | > 100 µM
CCOC(=O)c1ccc(N(C=O)CCC(=O)CCl)cc1 | 382 nM | 2.13 µM
COC1C(CO)OC(n2c3c(Cl)cccc3c3c4c(c5c6cccc(Cl)c6[nH]c5c32)C(=O)NC4=O)C(O)C1O (stereo not drawn) | 74.3 nM | 0.352 µM
O=C(NO)c1ccc(Cn2c(=O)n(-c3ccccc3)c(=O)c3ccccc32)cc1 | 542 nM | 2.23 µM
Clc1ccc2nc(Cl)c3ccccc3c2c1 | 10500 nM | 38.7 µM
C[C@@H](Oc1cc(-n2cnc3ccc(OCC4CCN(C)CC4)cc32)sc1C(N)=O)c1ccccc1Cl | 9.3 nM | 0.22 µM
O=C(CCN1CCCC1)Nc1ccc2c(NCCc3ccccc3)c3ccccc3nc2c1 | 284 nM | 1.04 µM
O=c1[nH]c(Sc2sc3ccc(Cl)cc3c2CBr)nc(=S)[nH]1 | > 68800 nM | > 100 µM
COc1cc(/C(=C2/O[C@@H]([C@H]3COC(C)(C)O3)[C@H]3OC(C)(C)O[C@@H]23)c2ccc3c(c2)OCO3)cc(OC)c1OC | 7930 nM | > 25 µM
CCCCCCCCNC(C)C(O)c1ccc(SC(C)C)cc1 (stereo not drawn) | 1570 nM | 3.24 µM
O=C1/C(=C/c2ccc(Cl)cc2)CN(C(=O)CCN2CCC(=NO)CC2)C/C1=C\c1ccc(Cl)cc1 | 833 nM | 2.51 µM
Fc1ccc([C@@H]2CCNC[C@H]2COc2ccc3c(c2)OCO3)cc1 | 5330 nM | 21 µM
